In publication PMC4742190, “Mitotic entry: Non-genetic heterogeneity exposes the requirement for Plk1” (Oncotarget, 2015):

Legend:
Experiment in all cases: enzyme (kinase) assay
Assay type in all cases: biochemical
Plk1 = Plk1 (Homo sapiens, UniProt P53350)
Plk3 = Plk3 (Homo sapiens, UniProt Q9H4B4)
Plk2 = Plk2 (Homo sapiens, UniProt Q9NYY3)
Plk2, sequence (Q9NYY3 whole entry): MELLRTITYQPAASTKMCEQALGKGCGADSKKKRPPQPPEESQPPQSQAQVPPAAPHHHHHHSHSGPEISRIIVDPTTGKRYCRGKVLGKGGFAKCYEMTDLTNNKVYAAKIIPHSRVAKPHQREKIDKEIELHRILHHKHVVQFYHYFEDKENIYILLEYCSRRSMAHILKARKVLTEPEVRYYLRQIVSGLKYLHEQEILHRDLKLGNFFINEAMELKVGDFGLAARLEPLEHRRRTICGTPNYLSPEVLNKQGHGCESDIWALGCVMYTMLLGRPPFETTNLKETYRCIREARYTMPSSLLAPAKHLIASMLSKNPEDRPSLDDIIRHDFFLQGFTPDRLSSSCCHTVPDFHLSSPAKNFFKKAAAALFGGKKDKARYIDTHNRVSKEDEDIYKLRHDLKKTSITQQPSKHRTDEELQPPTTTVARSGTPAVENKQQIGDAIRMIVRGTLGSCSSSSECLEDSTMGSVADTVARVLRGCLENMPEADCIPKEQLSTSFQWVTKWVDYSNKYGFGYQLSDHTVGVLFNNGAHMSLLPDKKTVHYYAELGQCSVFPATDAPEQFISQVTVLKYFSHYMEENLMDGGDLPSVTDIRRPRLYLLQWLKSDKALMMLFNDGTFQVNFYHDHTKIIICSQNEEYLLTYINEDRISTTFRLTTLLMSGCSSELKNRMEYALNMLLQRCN

Plk3, sequence (Q9H4B4 whole entry): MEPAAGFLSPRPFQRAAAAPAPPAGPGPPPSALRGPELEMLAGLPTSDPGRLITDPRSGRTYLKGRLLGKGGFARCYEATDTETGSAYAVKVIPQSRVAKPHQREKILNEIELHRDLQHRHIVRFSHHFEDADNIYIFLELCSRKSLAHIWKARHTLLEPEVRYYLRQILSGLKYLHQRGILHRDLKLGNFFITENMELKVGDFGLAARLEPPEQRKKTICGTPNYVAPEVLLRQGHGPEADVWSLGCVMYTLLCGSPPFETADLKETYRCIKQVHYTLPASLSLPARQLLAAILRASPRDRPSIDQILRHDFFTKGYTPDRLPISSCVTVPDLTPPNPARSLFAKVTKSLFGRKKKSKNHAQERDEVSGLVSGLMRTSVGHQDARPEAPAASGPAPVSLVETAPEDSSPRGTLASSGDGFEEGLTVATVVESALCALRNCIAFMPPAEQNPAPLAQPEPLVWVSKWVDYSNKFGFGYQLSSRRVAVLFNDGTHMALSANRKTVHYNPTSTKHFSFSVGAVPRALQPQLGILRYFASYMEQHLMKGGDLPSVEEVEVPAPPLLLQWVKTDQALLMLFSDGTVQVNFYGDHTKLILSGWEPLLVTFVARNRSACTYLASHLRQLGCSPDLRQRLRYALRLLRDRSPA
Plk1, sequence (P53350 2-603): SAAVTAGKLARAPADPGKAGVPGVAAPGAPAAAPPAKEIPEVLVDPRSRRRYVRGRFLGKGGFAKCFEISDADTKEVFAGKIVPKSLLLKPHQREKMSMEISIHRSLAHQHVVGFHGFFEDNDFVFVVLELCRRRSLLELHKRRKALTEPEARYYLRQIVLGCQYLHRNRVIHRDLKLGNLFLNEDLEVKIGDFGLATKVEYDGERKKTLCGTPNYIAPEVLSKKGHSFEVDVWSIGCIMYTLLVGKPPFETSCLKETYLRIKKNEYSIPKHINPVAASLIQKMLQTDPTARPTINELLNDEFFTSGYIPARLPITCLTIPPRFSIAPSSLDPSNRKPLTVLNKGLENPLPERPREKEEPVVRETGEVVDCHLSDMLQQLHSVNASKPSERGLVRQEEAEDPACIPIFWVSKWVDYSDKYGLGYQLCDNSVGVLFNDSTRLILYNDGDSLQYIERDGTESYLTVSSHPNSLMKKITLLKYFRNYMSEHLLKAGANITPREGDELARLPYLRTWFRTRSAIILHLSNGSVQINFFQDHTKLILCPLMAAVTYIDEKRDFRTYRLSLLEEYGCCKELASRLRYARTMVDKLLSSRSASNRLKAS

CYC140844
IC50 (Plk1): 36 nM
IC50 (Plk3): 702 nM
IC50 (Plk2): 113 nM
